Laboratory results published in patent US11666600B2, “Methods for culturing and/or differentiating hematopoietic stem cells into progenitors and uses thereof” (HEMA-QUEBEC, priority 2015, dated 2023).

How the values were obtained:
[1] = tested on: cord blood CD34+ cells; test: Expansion of CD34+/CD41+ megakaryocytic progenitors from cord blood CD34+ cells; assay type: cell-based, human; conditions: 39° C. + PIC2 500 nM; 14 days; SFEM + BS1; FIG. 7
Procedure: Human cord blood (CB) was collected after obtaining written informed consent from donors, following our institutional Research Ethics Committee guidelines. Mononuclear cells (MNCs) were first separated over a Ficoll-Hypaque™ density gradient (GE Healthcare), then cryopreserved at −180° C. in Cryostor CS10™ medium ([…] Technologies). Thawed MNCs from six to eight CB were pooled before CD34 isolation. CB CD34+ cells were enriched by positive selection using the EasySep™ CD34 enrichment kit, according to the manufacturer's instructions ([…] Technologies). […]
Cellular counts and viability were determined by adding Solution 18 (Acridine Orange and DAPI solution, ChemomMetec) and using NucleoCounter™ NC-250 for detection (ChemomMetec).
For cells expanded in conditions favoring differentiation towards the MK lineage, surface markers were detected using the following antibodies: CD34-FITC, CD41a-APC and CD42b-PE. […] All samples were analyzed on an Accuri™ C6 flow cytometer (BD Biosciences), and raw data were analyzed with FCS Express 5 Flow Research Edition software from at least 15 000 viable cell events acquired for each sample. […]
Cellular counts and viability were determined as described in Example 6.5. […]

[2] = tested on: CD34+/CD45RA− mobilized peripheral blood cells; conditions: Fares et al., 2014; cited from earlier work
[3] = tested on: aryl hydrocarbon receptor (AhR) pathway; conditions: Fares et al., 2014; cited from earlier work

Compound: COC(=O)c1ccc2c(c1)[nH]c1ncnc(NCCCN3CCCCC3)c12 [PIC2, Methyl 4-((3-(piperidin-1-yl)propyl)amino)-9H-pyrimido[4,5-b]indole-7-carboxylate]
- combined use of mild hyperthermia and PIC2 on expansion of CB CD34+/CD41+ cells [1]: synergistic effect
- expansion of CD34+/CD45RA− mobilized peripheral blood cells (enriched in LT-HSCs) [2]: stimulate expansion
- suppression of the aryl hydrocarbon receptor (AhR) pathway [3]: without acting as suppressors
